Results reported in US20150148759A1, “Pharmaceutical Patch for Transdermal Administration of Tapentadol” (Gruenenthal GmbH, priority 2012, published 2015).
Converted amounts (≈) assume the structure as drawn. “And” between values parts separate entries of the source, which are not always exact repeats. Equal entries are not always repeated. Structures can show the parent of a compound that is named as a salt. Where two headings read alike, the source gives them in different places.

Experiments:
[1] = solubility of API and API HCl in different solvents; format: physicochemical
Description: The solubility of API and API HCl in different organic solvents and aqueous solutions is tested by transferring defined volumes of the solvents into micro vials. API and API HCl, respectively, are added until saturation. The solutions are centrifuged and the supernatants analyzed by HPLC (Table 1).

[2] = compatibility of API HCl with different adhesives; format: physicochemical
Description: The compatibility of the hydrochloride salt of Tapentadol (API HCl) with different types of adhesives is tested (Table 2).
Duro-Tak 87-900A: non-functional acrylic (no hydroxyl, no carboxyl groups), non-curing
Duro-Tak 87-4287: hydroxyl-functionalized polyacrylate-vinylacetate copolymer, non-curing
Duro-Tak 87-2677: carboxylate-functionalized polyacrylate-vinylacetate copolymer, self-curing
Duro-Tak 87-6911 A: tackified styrene rubber (styrene-block-butadiene-block-styrene), not functionalized
Bio PSA 7-4502: silicone adhesive.

hairless mouse skin = experiment: in-vitro skin permeation from donor solution, Franz-diffusion cell; format: in vitro ADME
Description: Saturated solutions of API and API HCl were prepared in a mixture of ethanol and dodecanol (95:5) and ethanol and oleic acid (85:15), respectively.
An in-vitro permeation study was performed with the saturated solutions to show permeation of drug through mouse skin. The in-vitro experiments were conducted using a Franz-diffusion cell. The Franz-diffusion cell consists of a donor compartment and an acceptor compartment. • Skin: hairless mouse skin, female, age 6-7 weeks • Stem: Hsd: Athymic Nude-Foxn1^nu • Dermal tissue: dorsal and abdominal with all dermal layers • Breeder: Harlan Laboratories GmbH • Acceptor medium: HEPES buffer pH 7.2 • Volume acceptor: 15 mL • Volume donor: 1.0 mL • Donor solutions: • API HCl in ethanol/dodecanol (95/5) • API HCl in ethanol/oleic acid (85/15) • API in ethanol/dodecanol (95/5) • API in ethanol/oleic acid (85/15) • Permeation area: ˜1.00 cm^2 • Temperature in donor solution: 32±0.5° C. • Sampling times: 3 h, 6 h, 12 h, 18 h, 24 h • Sampling: automatic sampling system #115 • Rinsed volume: ˜7.0 mL • Sample volume: 1.0 mL • Replaced volume: 8.0 mL • Standards: • API HCl in acceptor medium • c(std A)=86.12 μg/mL • c(std B)=8.612 μg/mL • HPLC method: see above • Injection volume: variable between 3-15 μL and adjusted dilution factor

pain = experiment: preliminary clinical trials, pain treating effect (visual analog scale); format: in vivo, human
Description: Low serum concentrations of Tapentadol suffice to show an effect in individuals that are relatively sensitive and higher serum concentrations of Tapentadol are needed to show an effect in persons that are relatively unsensitive.

[3] = donor ethanol/dodecanol (95:5), time between sampling 6 h, 5th interval (sampling at 24 h)
[4] = donor ethanol/dodecanol (95:5), total dissolution time 3 h
[5] = donor ethanol/dodecanol (95:5), total dissolution time 6 h
[6] = donor ethanol/dodecanol (95:5), total dissolution time 12 h
[7] = donor ethanol/oleic (85:15), time between sampling 3 h, 1st interval (sampling at 3 h)
[8] = donor ethanol/oleic (85:15), time between sampling 3 h, 2nd interval (sampling at 6 h)
[9] = donor ethanol/oleic (85:15), time between sampling 6 h, 3rd interval (sampling at 12 h)
[10] = donor ethanol/oleic (85:15), time between sampling 6 h, 5th interval (sampling at 24 h)
[11] = donor ethanol/oleic (85:15), total dissolution time 3 h
[12] = donor ethanol/oleic (85:15), total dissolution time 6 h
[13] = donor ethanol/oleic (85:15), total dissolution time 12 h
[14] = donor ethanol/oleic (85:15), total dissolution time 18 h
[15] = donor ethanol/oleic (85:15), total dissolution time 24 h
[16] = donor ethanol/oleic (85:15), total time 3 h
[17] = donor ethanol/oleic (85:15), total time 6 h
[18] = donor ethanol/oleic (85:15), total time 12 h
[19] = donor ethanol/oleic (85:15), total time 18 h
[20] = donor ethanol/oleic (85:15), total time 24 h
[21] = donor ethanol/dodecanol (95:5), total dissolution time 18 h
[22] = donor ethanol/dodecanol (95:5), total dissolution time 24 h

SMILES: CC[C@@H](c1cccc(O)c1)[C@@H](C)CN(C)C [API HCl]
- solubility ([1]; HEPES (pH = 7.2)): 286 mg/mL
- solubility ([1]; acetone): 0.92 mg/mL
- solubility ([1]; aqueous solutions): excellent solubility
- solubility ([1]; ethanol): 33.1 mg/mL
- solubility ([1]; ethylacetate): 4.46 mg/mL
- solubility ([1]; organic solvents like ethylacetate or acetone, ethanol and n-heptane): hardly soluble
- solubility ([1]; water (pH = 5.8)): 298 mg/mL
- appearance of solution ([2]; carboxylate-functionalized DT 87-2677): yellowish solutions are clear
- appearance of solution ([2]; hydroxyl-functionalized polymer DT 87-4287): opaque solutions which turn slightly yellow after two weeks at room temperature
- appearance of solution ([2]; non-functionalized DT 87-900A): clear and colorless
- appearance of solution ([2]; silicone adhesive Bio PSA 7-4502, 2 and 5% of API HCl): clear and colorless
- flux (hairless mouse skin; [3]): 810.2 μg/cm^2h and 480.5 μg/cm^2h
- permeated amount of API or API HCl (hairless mouse skin; [4]): 0.8% and 0.2%
- permeated amount of API or API HCl (hairless mouse skin; [5]): 2.1% and 0.7%
- permeated amount of API or API HCl (hairless mouse skin; [6]): 8.0% and 2.6%
- flux (hairless mouse skin; [7]): 55.4 μg/cm^2h and 63.3 μg/cm^2h
- flux (hairless mouse skin; [8]): 107.6 μg/cm^2h and 142.2 μg/cm^2h
- flux (hairless mouse skin; [9]): 205.0 μg/cm^2h and 234.1 μg/cm^2h
- flux (hairless mouse skin; donor ethanol/oleic (85:15), time between sampling 6 h, 4th interval (sampling at 18 h)): 142.8 μg/cm^2h and 155.3 μg/cm^2h
- flux (hairless mouse skin; [10]): 114.7 μg/cm^2h and 115.8 μg/cm^2h
- permeated amount of API or API HCl (hairless mouse skin; [11]): 0.4% and 0.5%
- total permeated amount of API or API HCl (hairless mouse skin; [11]): 166.2 μg/cm^2 and 189.9 μg/cm^2
- permeated amount of API or API HCl (hairless mouse skin; [12]): 1.2% and 1.6%
- total permeated amount of API or API HCl (hairless mouse skin; [12]): 489.0 μg/cm^2 and 616.7 μg/cm^2
- permeated amount of API or API HCl (hairless mouse skin; [13]): 4.4% and 5.1%
- total permeated amount of API or API HCl (hairless mouse skin; [13]): 1718.7 μg/cm^2 and 2021.1 μg/cm^2
- permeated amount of API or API HCl (hairless mouse skin; [14]): 6.5% and 7.5%
- total permeated amount of API or API HCl (hairless mouse skin; [14]): 2575.7 μg/cm^2 and 2953.1 μg/cm^2
- permeated amount of API or API HCl (hairless mouse skin; [15]): 8.3% and 9.3%
- total permeated amount of API or API HCl (hairless mouse skin; [15]): 3263.7 μg/cm^2 and 3647.7 μg/cm^2
- concentration of API or API HCl in sample solution (hairless mouse skin; [16]): 10.859 µg/mL and 12.409 µg/mL
- concentration of API or API HCl in sample solution (hairless mouse skin; [17]): 26.807 µg/mL and 34.414 µg/mL
- concentration of API or API HCl in sample solution (hairless mouse skin; [18]): 94.462 µg/mL and 109.882 µg/mL
- concentration of API or API HCl in sample solution (hairless mouse skin; [19]): 105.741 µg/mL and 118.759 µg/mL
- concentration of API or API HCl in sample solution (hairless mouse skin; [20]): 100.635 µg/mL and 107.927 µg/mL

SMILES: CC[C@@H](c1cccc(O)c1)[C@@H](C)CN(C)C [API, 3-[(1R,2R)-3-(dimethylamino)-1-ethyl-2-methylpropyl]phenol]
- solubility ([1]; HEPES (pH = 7.2)): 5.43 mg/mL (≈ 24.5 mM)
- solubility ([1]; acetone): 332 mg/mL (≈ 1500 mM)
- dissolved amounts of API ([1]; aqueous solutions): ≤ 5.5 mg/mL
- solubility ([1]; ethanol): 404 mg/mL (≈ 1830 mM)
- solubility ([1]; ethylacetate): 232 mg/mL (≈ 1050 mM)
- solubility ([1]; n-heptane, organic solvent or mixture, thermodynamic from solid, n-heptane, read-out: solubility): 1.27 mg/mL (≈ 5.74 mM)
- API contents measured ([1]; organic solvents other than n-heptane): higher than 230 mg/mL
- solubility ([1]; water (pH = 5.8)): 0.48 mg/mL (≈ 2.17 mM)
- passes across the skin barrier (hairless mouse skin; compared with the hydrochloride of Tapentadol): much better
- flux (hairless mouse skin; donor ethanol/dodecanol (95:5), time between sampling 3 h, 1st interval (sampling at 3 h)): 178.1 μg/cm^2h and 263.3 μg/cm^2h
- flux (hairless mouse skin; donor ethanol/dodecanol (95:5), time between sampling 3 h, 2nd interval (sampling at 6 h)): 314.1 μg/cm^2h and 398.7 μg/cm^2h
- flux (hairless mouse skin; donor ethanol/dodecanol (95:5), time between sampling 6 h, 3rd interval (sampling at 12 h)): 789.1 μg/cm^2h and 1056.3 μg/cm^2h
- flux (hairless mouse skin; donor ethanol/dodecanol (95:5), time between sampling 6 h, 4th interval (sampling at 18 h)): 2405.6 μg/cm^2h and 2492.9 μg/cm^2h
- flux (hairless mouse skin; [3]): 1028.9 μg/cm^2h and 1038.6 μg/cm^2h
- permeated amount of API or API HCl (hairless mouse skin; [4]): 1.0% and 1.5%
- total permeated amount of API or API HCl (hairless mouse skin; [4]): 534.4 μg/cm^2 and 789.9 μg/cm^2
- permeated amount of API or API HCl (hairless mouse skin; [5]): 2.9% and 3.9%
- total permeated amount of API or API HCl (hairless mouse skin; [5]): 1476.8 μg/cm^2 and 1986.1 μg/cm^2
- permeated amount of API or API HCl (hairless mouse skin; [6]): 12.1% and 16.2%
- total permeated amount of API or API HCl (hairless mouse skin; [6]): 6211.5 μg/cm^2 and 8324.0 μg/cm^2
- permeated amount of API or API HCl (hairless mouse skin; [21]): 40.2% and 45.4%
- total permeated amount of API or API HCl (hairless mouse skin; [21]): 20644.9 μg/cm^2 and 23281.6 μg/cm^2
- permeated amount of API or API HCl (hairless mouse skin; [22]): 52.3% and 57.5%
- total permeated amount of API or API HCl (hairless mouse skin; [22]): 26818.4 μg/cm^2 and 29513.4 μg/cm^2
- concentration of API or API HCl in sample solution (hairless mouse skin; donor ethanol/dodecanol (95:5), total time 3 h): 34.914 µg/mL and 51.610 µg/mL
- concentration of API or API HCl in sample solution (hairless mouse skin; donor ethanol/dodecanol (95:5), total time 6 h): 79.955 µg/mL and 105.327 µg/mL
- concentration of API or API HCl in sample solution (hairless mouse skin; donor ethanol/dodecanol (95:5), total time 12 h): 351.444 µg/mL and 469.548 µg/mL
- concentration of API or API HCl in sample solution (hairless mouse skin; donor ethanol/dodecanol (95:5), total time 18 h): 1128.078 µg/mL and 1224.529 µg/mL
- concentration of API or API HCl in sample solution (hairless mouse skin; donor ethanol/dodecanol (95:5), total time 24 h): 997.460 µg/mL and 1052.063 µg/mL
- flux (hairless mouse skin; [7]): 273.5 μg/cm^2h and 441.9 μg/cm^2h
- flux (hairless mouse skin; [8]): 1279.0 μg/cm^2h and 1897.8 μg/cm^2h
- flux (hairless mouse skin; [9]): 458.8 μg/cm^2h and 247.0 μg/cm^2h
- flux (hairless mouse skin; [10]): 572.1 μg/cm^2h and 382.5 μg/cm^2h
- permeated amount of API or API HCl (hairless mouse skin; [11]): 1.7% and 2.7%
- total permeated amount of API or API HCl (hairless mouse skin; [11]): 820.5 μg/cm^2 and 1325.6 μg/cm^2
- permeated amount of API or API HCl (hairless mouse skin; [12]): 9.5% and 14.3%
- total permeated amount of API or API HCl (hairless mouse skin; [12]): 4657.4 μg/cm^2 and 7019.0 μg/cm^2
- permeated amount of API or API HCl (hairless mouse skin; [13]): 15.1% and 17.3%
- total permeated amount of API or API HCl (hairless mouse skin; [13]): 7410.5 μg/cm^2 and 8500.8 μg/cm^2
- permeated amount of API or API HCl (hairless mouse skin; [14]): 17.9% and 26.6%
- total permeated amount of API or API HCl (hairless mouse skin; [14]): 8799.1 μg/cm^2 and 13084.6 μg/cm^2
- permeated amount of API or API HCl (hairless mouse skin; [15]): 24.9% and 31.3%
- total permeated amount of API or API HCl (hairless mouse skin; [15]): 12231.6 μg/cm^2 and 15379.8 μg/cm^2
- concentration of API or API HCl in sample solution (hairless mouse skin; [16]): 53.604 µg/mL and 86.606 µg/mL
- concentration of API or API HCl in sample solution (hairless mouse skin; [17]): 278.914 µg/mL and 417.581 µg/mL
- concentration of API or API HCl in sample solution (hairless mouse skin; [18]): 326.763 µg/mL and 316.739 µg/mL
- concentration of API or API HCl in sample solution (hairless mouse skin; [19]): 262.813 µg/mL and 466.288 µg/mL
- concentration of API or API HCl in sample solution (hairless mouse skin; [20]): 362.673 µg/mL and 395.534 µg/mL

SMILES: CC[C@@H](c1cccc(O)c1)[C@@H](C)CN(C)C [Tapentadol, 3-[(1R,2R)-3-(dimethylamino)-1-ethyl-2-methylpropyl]phenol]
- visual analog scale (VAS) in a population mean (pain; serum concentration about 5 ng·ml^−1): approximately −2 mm
- visual analog scale (VAS) in a population mean (pain; serum concentration about 300 ng·ml^−1): approximately −15 mm
